Test results published in article PMC8213057, “Targeting ALK2: An Open Science Approach to Developing Therapeutics for the Treatment of Diffuse Intrinsic Pontine Glioma” (Journal of Medicinal Chemistry, 2020).
Where “and” joins values, the source holds several entries; their conditions need not be identical. Equal values may be shown once.

How the values were obtained:
PKN1/PRK1 = PKN1/PRK1 (Homo sapiens, UniProt Q16512); details: 1 μM; Run 1, Run 2
BRK = BRK (Homo sapiens, UniProt Q13882); details: 1 μM; Run 1, Run 2
BRK, sequence (Q13882 whole entry): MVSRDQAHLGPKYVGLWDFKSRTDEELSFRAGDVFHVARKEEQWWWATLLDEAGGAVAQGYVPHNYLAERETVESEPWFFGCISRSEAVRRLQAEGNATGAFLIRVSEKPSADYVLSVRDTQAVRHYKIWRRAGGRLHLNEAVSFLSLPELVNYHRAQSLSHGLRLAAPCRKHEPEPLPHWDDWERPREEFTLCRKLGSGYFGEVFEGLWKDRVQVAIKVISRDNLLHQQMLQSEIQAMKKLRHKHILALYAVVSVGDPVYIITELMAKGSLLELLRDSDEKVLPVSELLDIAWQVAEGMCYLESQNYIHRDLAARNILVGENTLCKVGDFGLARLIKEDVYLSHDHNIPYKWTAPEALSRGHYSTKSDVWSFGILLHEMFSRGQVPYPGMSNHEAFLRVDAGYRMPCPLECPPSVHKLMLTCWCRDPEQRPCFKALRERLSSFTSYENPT

MLK3/MAP3K11 = MLK3/MAP3K11 (Homo sapiens, UniProt Q16584); experiment: biochemical; details: read-out: % enzyme activity, 1 μM; Run 1, Run 2
MEK5 = molecular target: T1, MEK5 (Homo sapiens, UniProt Q13163); experiment: biochemical; details: read-out: % enzyme activity, 1 μM; Run 1, Run 2
T1 sequence (Q13163 1-448): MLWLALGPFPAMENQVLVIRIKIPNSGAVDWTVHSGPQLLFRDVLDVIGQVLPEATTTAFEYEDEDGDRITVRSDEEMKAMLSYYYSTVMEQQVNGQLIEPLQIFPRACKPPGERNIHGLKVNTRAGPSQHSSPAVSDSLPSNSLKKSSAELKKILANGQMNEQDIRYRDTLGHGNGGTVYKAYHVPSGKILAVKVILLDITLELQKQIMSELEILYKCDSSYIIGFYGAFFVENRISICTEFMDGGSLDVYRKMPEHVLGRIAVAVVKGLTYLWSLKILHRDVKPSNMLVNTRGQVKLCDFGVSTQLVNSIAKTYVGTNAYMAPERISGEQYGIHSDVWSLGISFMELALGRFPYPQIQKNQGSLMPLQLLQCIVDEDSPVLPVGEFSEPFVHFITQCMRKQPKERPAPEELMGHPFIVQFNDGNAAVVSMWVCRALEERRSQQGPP

MARK1 = MARK1 (Homo sapiens, UniProt Q9P0L2); experiment: biochemical; details: read-out: % enzyme activity, 1 μM; Run 1, Run 2
MARK1, sequence (Q9P0L2 whole entry): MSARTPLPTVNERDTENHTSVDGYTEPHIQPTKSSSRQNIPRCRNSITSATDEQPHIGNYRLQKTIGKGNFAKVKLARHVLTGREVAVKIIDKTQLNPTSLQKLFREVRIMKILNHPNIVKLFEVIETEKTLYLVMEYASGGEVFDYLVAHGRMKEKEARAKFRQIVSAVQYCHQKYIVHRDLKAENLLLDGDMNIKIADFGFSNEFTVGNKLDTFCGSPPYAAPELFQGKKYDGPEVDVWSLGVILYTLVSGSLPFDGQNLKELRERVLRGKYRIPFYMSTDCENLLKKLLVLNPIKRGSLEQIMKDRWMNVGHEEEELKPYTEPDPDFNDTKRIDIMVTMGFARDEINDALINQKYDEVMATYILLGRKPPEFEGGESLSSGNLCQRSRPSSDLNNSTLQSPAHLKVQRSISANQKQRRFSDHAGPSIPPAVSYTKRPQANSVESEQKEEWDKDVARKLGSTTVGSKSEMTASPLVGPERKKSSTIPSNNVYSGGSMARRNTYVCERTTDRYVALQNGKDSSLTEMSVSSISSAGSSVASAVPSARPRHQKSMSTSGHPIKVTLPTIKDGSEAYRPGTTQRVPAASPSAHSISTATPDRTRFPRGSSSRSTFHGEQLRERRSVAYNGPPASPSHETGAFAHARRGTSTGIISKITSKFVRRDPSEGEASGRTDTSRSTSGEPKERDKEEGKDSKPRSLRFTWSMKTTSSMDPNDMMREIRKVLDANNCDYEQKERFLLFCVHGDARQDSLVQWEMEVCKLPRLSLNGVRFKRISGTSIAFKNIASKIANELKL

STK32C/YANK3 = STK32C/YANK3 (Homo sapiens, UniProt Q86UX6); experiment: biochemical; details: read-out: % enzyme activity, 1 μM; Run 1, Run 2
MNK1 = MNK1 (Homo sapiens, UniProt Q9BUB5); experiment: biochemical; details: read-out: % enzyme activity, 1 μM; Run 1, Run 2
MNK1, sequence (Q9BUB5 whole entry): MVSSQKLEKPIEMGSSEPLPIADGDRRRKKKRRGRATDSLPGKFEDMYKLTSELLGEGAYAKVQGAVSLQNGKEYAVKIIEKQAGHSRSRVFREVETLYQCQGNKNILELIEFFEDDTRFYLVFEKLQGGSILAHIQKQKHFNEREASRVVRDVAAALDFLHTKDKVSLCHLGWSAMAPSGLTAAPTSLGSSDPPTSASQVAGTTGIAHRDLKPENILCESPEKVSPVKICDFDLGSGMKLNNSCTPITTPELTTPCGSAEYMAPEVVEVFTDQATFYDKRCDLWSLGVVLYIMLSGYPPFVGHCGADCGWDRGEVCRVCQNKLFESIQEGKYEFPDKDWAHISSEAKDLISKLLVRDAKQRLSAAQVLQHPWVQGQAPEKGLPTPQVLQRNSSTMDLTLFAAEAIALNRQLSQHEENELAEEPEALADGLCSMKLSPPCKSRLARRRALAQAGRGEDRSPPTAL

PKCtheta = PKCtheta (Homo sapiens, UniProt Q04759); experiment: biochemical; details: read-out: % enzyme activity, 1 μM; Run 1, Run 2
ROCK1 = ROCK1 (Homo sapiens, UniProt Q13464); details: 1 μM; Run 1, Run 2
GCK/MAP4K2 = molecular target: T2, GCK/MAP4K2 (Homo sapiens, UniProt Q12851); details: 1 μM; Run 1, Run 2
T2 sequence (Q12851 1-820): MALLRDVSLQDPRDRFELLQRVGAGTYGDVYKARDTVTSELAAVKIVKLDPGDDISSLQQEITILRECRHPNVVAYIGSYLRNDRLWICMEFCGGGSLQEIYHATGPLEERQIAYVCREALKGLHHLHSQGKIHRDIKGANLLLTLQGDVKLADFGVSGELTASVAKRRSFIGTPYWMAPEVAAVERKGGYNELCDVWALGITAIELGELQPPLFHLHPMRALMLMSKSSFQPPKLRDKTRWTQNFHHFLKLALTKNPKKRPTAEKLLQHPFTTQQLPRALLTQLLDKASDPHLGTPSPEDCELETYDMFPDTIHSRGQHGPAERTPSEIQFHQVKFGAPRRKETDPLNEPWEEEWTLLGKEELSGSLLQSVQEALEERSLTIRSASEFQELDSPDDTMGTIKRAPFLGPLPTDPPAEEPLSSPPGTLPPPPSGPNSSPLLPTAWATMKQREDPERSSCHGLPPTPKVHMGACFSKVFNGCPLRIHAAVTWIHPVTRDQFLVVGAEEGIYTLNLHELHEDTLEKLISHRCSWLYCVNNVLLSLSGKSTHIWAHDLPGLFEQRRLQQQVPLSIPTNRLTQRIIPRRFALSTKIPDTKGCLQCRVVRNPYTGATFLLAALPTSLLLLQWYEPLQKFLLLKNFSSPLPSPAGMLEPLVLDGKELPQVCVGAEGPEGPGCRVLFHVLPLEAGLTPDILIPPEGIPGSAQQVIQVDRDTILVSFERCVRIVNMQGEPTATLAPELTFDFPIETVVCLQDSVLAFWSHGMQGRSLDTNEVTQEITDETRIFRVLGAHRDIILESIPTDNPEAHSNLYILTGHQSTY

TNIK = molecular target: T3, TNIK (Homo sapiens, UniProt Q9UKE5); experiment: 375-member kinase panel; format: biochemical; details: Run 1, Run 2; for % enzyme activity: 1 μM
T3 construct: purchased Reaction Biology Corporation
T3 sequence (Q9UKE5 whole entry): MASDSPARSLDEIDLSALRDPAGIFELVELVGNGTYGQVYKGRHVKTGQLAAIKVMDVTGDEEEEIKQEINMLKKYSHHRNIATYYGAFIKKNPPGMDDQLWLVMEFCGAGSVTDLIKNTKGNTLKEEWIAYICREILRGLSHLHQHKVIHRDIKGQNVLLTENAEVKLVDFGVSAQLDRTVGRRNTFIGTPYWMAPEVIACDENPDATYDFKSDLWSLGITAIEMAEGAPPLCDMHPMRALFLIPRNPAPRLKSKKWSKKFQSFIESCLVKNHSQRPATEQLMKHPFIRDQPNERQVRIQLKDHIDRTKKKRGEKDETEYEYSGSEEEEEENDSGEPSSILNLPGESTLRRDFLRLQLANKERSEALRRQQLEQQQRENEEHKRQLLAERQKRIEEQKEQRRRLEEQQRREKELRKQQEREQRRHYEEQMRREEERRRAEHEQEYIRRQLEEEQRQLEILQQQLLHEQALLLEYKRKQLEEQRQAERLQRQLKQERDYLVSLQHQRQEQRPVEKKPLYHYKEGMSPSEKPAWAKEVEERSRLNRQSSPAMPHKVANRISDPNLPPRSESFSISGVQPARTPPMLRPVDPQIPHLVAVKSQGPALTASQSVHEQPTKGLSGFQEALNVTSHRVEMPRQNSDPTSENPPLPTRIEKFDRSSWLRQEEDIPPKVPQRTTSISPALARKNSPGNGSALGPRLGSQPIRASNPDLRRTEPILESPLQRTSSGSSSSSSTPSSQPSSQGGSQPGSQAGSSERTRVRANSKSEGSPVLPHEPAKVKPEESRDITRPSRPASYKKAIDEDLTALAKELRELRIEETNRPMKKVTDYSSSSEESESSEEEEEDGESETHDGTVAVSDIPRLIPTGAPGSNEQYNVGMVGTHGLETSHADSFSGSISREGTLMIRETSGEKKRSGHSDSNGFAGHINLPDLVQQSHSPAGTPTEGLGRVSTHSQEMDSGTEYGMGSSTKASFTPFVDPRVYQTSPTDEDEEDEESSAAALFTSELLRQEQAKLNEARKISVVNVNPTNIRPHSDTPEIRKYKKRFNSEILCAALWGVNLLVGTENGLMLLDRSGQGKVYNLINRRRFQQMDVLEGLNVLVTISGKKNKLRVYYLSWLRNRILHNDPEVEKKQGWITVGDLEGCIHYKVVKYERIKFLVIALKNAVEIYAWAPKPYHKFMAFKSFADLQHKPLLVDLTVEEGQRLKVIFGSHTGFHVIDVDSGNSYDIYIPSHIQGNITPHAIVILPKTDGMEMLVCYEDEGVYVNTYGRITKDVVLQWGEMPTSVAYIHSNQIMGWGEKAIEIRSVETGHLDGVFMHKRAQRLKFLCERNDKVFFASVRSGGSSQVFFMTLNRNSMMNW

CDK7/cyclin H = CDK7/cyclin H (Homo sapiens, UniProt P50613); experiment: biochemical; details: read-out: % enzyme activity, 1 μM; Run 1, Run 2
PKCa = PKCa (Homo sapiens, UniProt P17252); experiment: biochemical; details: read-out: % enzyme activity, 1 μM; Run 1, Run 2
PDGFRb = PDGFRb (Homo sapiens, UniProt P09619); details: 1 μM; Run 1, Run 2
PDGFRb, sequence (P09619 33-1106): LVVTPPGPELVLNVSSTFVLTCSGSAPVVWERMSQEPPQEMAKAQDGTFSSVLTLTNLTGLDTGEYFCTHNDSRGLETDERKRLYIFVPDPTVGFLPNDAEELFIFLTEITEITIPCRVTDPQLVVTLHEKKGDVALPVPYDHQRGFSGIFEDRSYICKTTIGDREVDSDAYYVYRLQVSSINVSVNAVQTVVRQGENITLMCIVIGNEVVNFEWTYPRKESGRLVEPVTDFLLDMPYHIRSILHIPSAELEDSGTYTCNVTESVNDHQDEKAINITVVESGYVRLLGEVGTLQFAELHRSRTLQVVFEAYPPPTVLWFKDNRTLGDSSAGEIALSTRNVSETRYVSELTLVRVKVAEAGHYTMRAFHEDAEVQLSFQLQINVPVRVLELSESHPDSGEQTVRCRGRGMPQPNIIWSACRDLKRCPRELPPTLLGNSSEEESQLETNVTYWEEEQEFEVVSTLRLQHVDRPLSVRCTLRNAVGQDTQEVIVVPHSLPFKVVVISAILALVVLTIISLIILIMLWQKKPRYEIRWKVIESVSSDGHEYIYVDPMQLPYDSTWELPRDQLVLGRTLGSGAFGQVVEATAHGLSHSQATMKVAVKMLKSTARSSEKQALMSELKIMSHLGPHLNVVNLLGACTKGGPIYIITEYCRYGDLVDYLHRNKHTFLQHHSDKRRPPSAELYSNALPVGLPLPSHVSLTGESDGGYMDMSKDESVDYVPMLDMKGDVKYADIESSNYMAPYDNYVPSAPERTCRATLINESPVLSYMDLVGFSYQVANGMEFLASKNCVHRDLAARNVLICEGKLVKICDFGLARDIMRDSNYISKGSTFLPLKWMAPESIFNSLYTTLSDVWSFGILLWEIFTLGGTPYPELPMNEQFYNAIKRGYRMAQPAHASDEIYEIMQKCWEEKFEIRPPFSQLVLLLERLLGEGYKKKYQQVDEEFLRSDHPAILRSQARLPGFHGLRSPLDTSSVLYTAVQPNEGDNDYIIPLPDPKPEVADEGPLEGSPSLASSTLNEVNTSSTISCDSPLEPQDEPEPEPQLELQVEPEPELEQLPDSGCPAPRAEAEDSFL

BTK [1] = molecular target: T4, BTK (Homo sapiens, UniProt Q06187); experiment: biochemical; details: read-out: % enzyme activity, 1 μM; Run 1, Run 2
T4 sequence (Q06187 whole entry): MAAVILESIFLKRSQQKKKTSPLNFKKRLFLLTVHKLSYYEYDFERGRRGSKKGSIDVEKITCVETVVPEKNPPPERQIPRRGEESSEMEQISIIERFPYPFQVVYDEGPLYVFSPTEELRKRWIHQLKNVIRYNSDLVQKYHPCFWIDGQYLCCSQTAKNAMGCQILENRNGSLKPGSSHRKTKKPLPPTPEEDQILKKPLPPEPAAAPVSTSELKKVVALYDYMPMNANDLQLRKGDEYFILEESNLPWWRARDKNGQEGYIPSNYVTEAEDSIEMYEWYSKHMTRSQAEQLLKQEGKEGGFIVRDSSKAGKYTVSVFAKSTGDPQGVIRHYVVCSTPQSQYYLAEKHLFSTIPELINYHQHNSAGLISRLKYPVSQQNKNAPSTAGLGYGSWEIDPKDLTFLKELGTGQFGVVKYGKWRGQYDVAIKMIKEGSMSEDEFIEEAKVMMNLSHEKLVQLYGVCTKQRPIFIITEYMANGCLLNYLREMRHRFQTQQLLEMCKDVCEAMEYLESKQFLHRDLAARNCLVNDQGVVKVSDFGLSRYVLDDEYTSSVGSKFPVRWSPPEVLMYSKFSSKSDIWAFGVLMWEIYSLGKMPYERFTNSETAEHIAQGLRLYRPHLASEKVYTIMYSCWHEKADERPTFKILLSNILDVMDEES

TLK2 = TLK2 (Homo sapiens, UniProt Q86UE8); experiment: biochemical; details: read-out: % enzyme activity, 1 μM; Run 1, Run 2
CAMKK1 = CAMKK1 (Homo sapiens, UniProt Q8N5S9); details: 1 μM; Run 1, Run 2
ABL2/ARG = ABL2/ARG (Homo sapiens, UniProt P42684); details: 1 μM; Run 1, Run 2
BTK [2] = molecular target: T4, BTK; details: 1 μM; Run 1, Run 2
PKAcb = PKAcb (Homo sapiens, UniProt P22694); experiment: biochemical; details: read-out: % enzyme activity, 1 μM; Run 1, Run 2

SMILES	% enzyme activity (PKN1/PRK1) [%]	% enzyme activity (BRK) [%]	remaining activity at 1 µM (MLK3/MAP3K11) [%]	remaining activity at 1 µM (MEK5) [%]	remaining activity at 1 µM (MARK1) [%]	remaining activity at 1 µM (STK32C/YANK3) [%]	remaining activity at 1 µM (MNK1) [%]	remaining activity at 1 µM (PKCtheta) [%]	% enzyme activity (ROCK1) [%]	% enzyme activity (GCK/MAP4K2) [%]	% enzyme activity at 1 μM (TAOK1)	% enzyme activity at 1 μM (FMS)	% enzyme activity (TNIK)	remaining activity at 1 µM (CDK7/cyclin H) [%]	remaining activity at 1 µM (PKCa) [%]	% enzyme activity (PDGFRb) [%]	remaining activity at 1 µM (BTK [1]) [%]	remaining activity at 1 µM (TLK2) [%]	% enzyme activity (CAMKK1) [%]	% enzyme activity (ABL2/ARG) [%]	also measured
COc1cc(-c2cncc(-c3ccc(N4CCN(C)CC4)cc3)c2C)cc(F)c1C(N)=O [Compound 26a, 2-Fluoro-6-methoxy-4-(4-methyl-5-(4-(4-methylpiperazin-1-yl)phenyl)pyridin-3-yl)benzamide]	96.76	58.28	99.4	86.9	88	86.8	51.1	85.1	91.98	59.95	60.3% and 60.2%	82.2% and 75.7%	-0.77% and -2.62%	97	89.8	76.01	95.3	96.6	92.05	95.77	% enzyme activity (BTK [2]): 94.35%; remaining activity at 1 µM (PKAcb): 96.2%
COc1cc(-c2cncc(-c3ccc(N4C[C@@H](C)N(C)[C@@H](C)C4)cc3)c2C)cc(F)c1C(N)=O [Compound 26c, 2-Fluoro-6-methoxy-4-(4-methyl-5-(4-((3R,5S)-3,4,5-trimethylpiperazin-1-yl)phenyl)pyridin-3-yl)benzamide]	96.39	73.52	96.7	93.2	94.1	93.3	71.4	87	92.61	74.91	62.2% and 60.6%	79.5% and 78.8%	3.92%	96.1	90.3	89.56	96.5	93.3	93.52	96.59	remaining activity at 1 µM (TNIK; read-out: % enzyme activity, 1 μM): 4.85%; % enzyme activity (BTK [2]): 94.07%; remaining activity at 1 µM (PKAcb): 97.9%
